In ChEMBL document CHEMBL3885861, “Open TG-GATES”:

Species: Rattus norvegicus
Experiment: Open TG-GATES - Regimen: Daily Repeat
Type: toxicity, organism-based, Sprague-Dawley
Design: regimen Daily Repeat, gender Male, age 6 weeks
Details: in vivo, po, 30 mg/kg, route gavage, dose level Low; for APTT / Bas / Eos / Fbg / Hb / Ht / Lym / MCH / MCHC / MCV / Mono / Neu / PT / Plat / RBC / Ret / WBC: tissue Blood; for KIDNEY_L / KIDNEY_R / KIDNEY_TOTAL: tissue Kidney; for LIVER: tissue Liver; for A/G / ALP / ALT / AST / BUN / CRE / Ca / Cl / DBIL / GLC / IP / K / LDH / Na / PL / RALB / TBIL / TC / TG / TP / gamma-GTP: tissue Plasma

C[C@]12CCC(=O)C=C1CC[C@@H]1[C@@H]2CC[C@@]2(C)[C@H]1CC[C@]2(C)O [METHYLTESTOSTERONE]
TERMINAL_BW (72 h, time 3 day): 237.2 g
APTT (72 h, time 3 day): 15.8 s
Bas (72 h, time 3 day): 0%
Eos (72 h, time 3 day): 1.2%
Fbg (72 h, time 3 day): 296.2 mg/dL
Hb (72 h, time 3 day): 13.3 g/dL
Ht (72 h, time 3 day): 38.8%
Lym (72 h, time 3 day): 75.2%
MCH (72 h, time 3 day): 21.5 pg
MCHC (72 h, time 3 day): 34.2%
MCV (72 h, time 3 day): 63 fL
Mono (72 h, time 3 day): 2.6%
Neu (72 h, time 3 day): 20.8%
PT (72 h, time 3 day): 12.8 s
Plat (72 h, time 3 day): 111.2 x10_4/uL
RBC (72 h, time 3 day): 617 x10_4/ul
Ret (72 h, time 3 day): 6.6%
WBC (72 h, time 3 day): 57.6 x10_2/uL
KIDNEY_L (72 h, time 3 day): 1 g
KIDNEY_R (72 h, time 3 day): 1 g
KIDNEY_TOTAL (72 h, time 3 day): 2 g
LIVER (72 h, time 3 day): 11.1 g
A/G (72 h, time 3 day): 0.9
ALP (72 h, time 3 day): 1870.2 IU/L
ALT (72 h, time 3 day): 45.4 IU/L
AST (72 h, time 3 day): 69.6 IU/L
BUN (72 h, time 3 day): 15 mg/dL
CRE (72 h, time 3 day): 0.2 mg/dL
Ca (72 h, time 3 day): 11 mg/dL
Cl (72 h, time 3 day): 107.6 meq/L
DBIL (72 h, time 3 day): 0.018 mg/dL
GLC (72 h, time 3 day): 195 mg/dL
IP (72 h, time 3 day): 7.9 mg/dL
K (72 h, time 3 day): 4.1 meq/L
LDH (72 h, time 3 day): 58.2 IU/L
Na (72 h, time 3 day): 144 meq/L
PL (72 h, time 3 day): 144 mg/dL
RALB (72 h, time 3 day): 2.7 g/dL
TBIL (72 h, time 3 day): 0.03 mg/dL
TC (72 h, time 3 day): 67.2 mg/dL
TG (72 h, time 3 day): 123.6 mg/dL
TP (72 h, time 3 day): 5.8 g/dL
gamma-GTP (72 h, time 3 day): 1.4 IU/L
TERMINAL_BW ([…], time 7 day): 271.8 g
TERMINAL_BW ([…], time 14 day): 329.8 g
TERMINAL_BW ([…], time 28 day): 409.3 g
APTT ([…], time 7 day): 16.5 s
Bas ([…], time 7 day): 0%
Eos ([…], time 7 day): 1%
Fbg ([…], time 7 day): 308.4 mg/dL
Hb ([…], time 7 day): 13.1 g/dL
Ht ([…], time 7 day): 38.1%
Lym ([…], time 7 day): 76.8%
MCH ([…], time 7 day): 21 pg
MCHC ([…], time 7 day): 34.4%
MCV ([…], time 7 day): 61 fL
Mono ([…], time 7 day): 3%
Neu ([…], time 7 day): 18.6%
PT ([…], time 7 day): 13 s
Plat ([…], time 7 day): 111.9 x10_4/uL
RBC ([…], time 7 day): 625.6 x10_4/ul
Ret ([…], time 7 day): 5.8%
WBC ([…], time 7 day): 78.3 x10_2/uL
APTT ([…], time 14 day): 17.7 s
Bas ([…], time 14 day): 0.2%
Eos ([…], time 14 day): 1%
Fbg ([…], time 14 day): 289.2 mg/dL
Hb ([…], time 14 day): 14.4 g/dL
Ht ([…], time 14 day): 41.7%
Lym ([…], time 14 day): 79.2%
MCH ([…], time 14 day): 20.6 pg
MCHC ([…], time 14 day): 34.6%
MCV ([…], time 14 day): 59.6 fL
Mono ([…], time 14 day): 2.4%
Neu ([…], time 14 day): 16%
PT ([…], time 14 day): 13.3 s
Plat ([…], time 14 day): 114.4 x10_4/uL
RBC ([…], time 14 day): 700.2 x10_4/ul
Ret ([…], time 14 day): 3.9%
WBC ([…], time 14 day): 96.1 x10_2/uL
APTT ([…], time 28 day): 19.2 s
Bas ([…], time 28 day): 0%
Eos ([…], time 28 day): 1.4%
Fbg ([…], time 28 day): 300.2 mg/dL
Hb ([…], time 28 day): 15.7 g/dL
Ht ([…], time 28 day): 44.9%
Lym ([…], time 28 day): 75.8%
MCH ([…], time 28 day): 19.5 pg
MCHC ([…], time 28 day): 35%
MCV ([…], time 28 day): 55.6 fL
Mono ([…], time 28 day): 2.6%
Neu ([…], time 28 day): 20.2%
PT ([…], time 28 day): 13.1 s
Plat ([…], time 28 day): 101.6 x10_4/uL
RBC ([…], time 28 day): 809.2 x10_4/ul
Ret ([…], time 28 day): 2.2%
WBC ([…], time 28 day): 84 x10_2/uL
KIDNEY_L ([…], time 7 day): 1.1 g
KIDNEY_R ([…], time 7 day): 1.1 g
KIDNEY_TOTAL ([…], time 7 day): 2.3 g
KIDNEY_L ([…], time 14 day): 1.3 g
KIDNEY_R ([…], time 14 day): 1.2 g
KIDNEY_TOTAL ([…], time 14 day): 2.5 g
KIDNEY_L ([…], time 28 day): 1.4 g
KIDNEY_R ([…], time 28 day): 1.4 g
KIDNEY_TOTAL ([…], time 28 day): 2.9 g
LIVER ([…], time 7 day): 12.5 g
LIVER ([…], time 14 day): 14.5 g
LIVER ([…], time 28 day): 17.1 g
A/G ([…], time 7 day): 0.9
ALP ([…], time 7 day): 1824.8 IU/L
ALT ([…], time 7 day): 46.8 IU/L
AST ([…], time 7 day): 75.2 IU/L
BUN ([…], time 7 day): 15 mg/dL
CRE ([…], time 7 day): 0.2 mg/dL
Ca ([…], time 7 day): 10.9 mg/dL
Cl ([…], time 7 day): 106 meq/L
DBIL ([…], time 7 day): 0.02 mg/dL
GLC ([…], time 7 day): 190.4 mg/dL
IP ([…], time 7 day): 7.6 mg/dL
K ([…], time 7 day): 4.1 meq/L
LDH ([…], time 7 day): 63.6 IU/L
Na ([…], time 7 day): 142.4 meq/L
PL ([…], time 7 day): 133 mg/dL
RALB ([…], time 7 day): 2.7 g/dL
TBIL ([…], time 7 day): 0.026 mg/dL
TC ([…], time 7 day): 54.6 mg/dL
TG ([…], time 7 day): 133 mg/dL
TP ([…], time 7 day): 5.8 g/dL
gamma-GTP ([…], time 7 day): 1.2 IU/L
A/G ([…], time 14 day): 0.8
ALP ([…], time 14 day): 1301 IU/L
ALT ([…], time 14 day): 49.8 IU/L
AST ([…], time 14 day): 72.8 IU/L
BUN ([…], time 14 day): 16.4 mg/dL
CRE ([…], time 14 day): 0.2 mg/dL
Ca ([…], time 14 day): 10.5 mg/dL
Cl ([…], time 14 day): 106.8 meq/L
DBIL ([…], time 14 day): 0.02 mg/dL
GLC ([…], time 14 day): 192.6 mg/dL
IP ([…], time 14 day): 7.1 mg/dL
K ([…], time 14 day): 4 meq/L
LDH ([…], time 14 day): 132.6 IU/L
Na ([…], time 14 day): 142.2 meq/L
PL ([…], time 14 day): 134.2 mg/dL
RALB ([…], time 14 day): 2.7 g/dL
TBIL ([…], time 14 day): 0.026 mg/dL
TC ([…], time 14 day): 54 mg/dL
TG ([…], time 14 day): 178.6 mg/dL
TP ([…], time 14 day): 5.9 g/dL
gamma-GTP ([…], time 14 day): 1.2 IU/L
A/G ([…], time 28 day): 0.8
ALP ([…], time 28 day): 1236.2 IU/L
ALT ([…], time 28 day): 43.6 IU/L
AST ([…], time 28 day): 66.8 IU/L
BUN ([…], time 28 day): 16.6 mg/dL
CRE ([…], time 28 day): 0.2 mg/dL
Ca ([…], time 28 day): 11.1 mg/dL
Cl ([…], time 28 day): 105.2 meq/L
DBIL ([…], time 28 day): 0.022 mg/dL
GLC ([…], time 28 day): 192 mg/dL
IP ([…], time 28 day): 6.7 mg/dL
K ([…], time 28 day): 3.9 meq/L
LDH ([…], time 28 day): 76.6 IU/L
Na ([…], time 28 day): 143.6 meq/L
PL ([…], time 28 day): 141.4 mg/dL
RALB ([…], time 28 day): 2.9 g/dL
TBIL ([…], time 28 day): 0.034 mg/dL
TC ([…], time 28 day): 56.2 mg/dL
TG ([…], time 28 day): 214 mg/dL
TP ([…], time 28 day): 6.3 g/dL
gamma-GTP ([…], time 28 day): 1 IU/L
